US20030068322A1, “Methods of antibody-directed enzyme-prodrug therapy” (IMMUNOMEDICS, INC., priority 1988, published 2003)

How the values were obtained:
[1] = versus CPT-11; cited from earlier work
[2] = system: lymphoma; assay: Therapy of lymphoma in a human patient; assay type: in vivo; conditions: 10 mg i.v. on each of 4 days after anti-lymphoma IgG-glucuronidase conjugate
Experimental: A human patient suffering from lymphoma is infused intravenously with a sterile, pyrogen-free PBS solution containing 5 mg of an anti-lymphoma IgG-glucuronidase conjugate prepared according to the example above, and labeled with I-131. […] The patient is then infused intravenously with a sterile, pyrogen-free PBS solution containing 10 mg of epirubicin glucuronide, prepared according to the example above, on each of the next 4 days.

[3] = target: T1, human beta-D-glucuronidase (Homo sapiens, UniProt P08236); conditions: Arcamone, Cancer Res. 45:5995 (1985); cited from earlier work
T1 sequence (P08236 23-651): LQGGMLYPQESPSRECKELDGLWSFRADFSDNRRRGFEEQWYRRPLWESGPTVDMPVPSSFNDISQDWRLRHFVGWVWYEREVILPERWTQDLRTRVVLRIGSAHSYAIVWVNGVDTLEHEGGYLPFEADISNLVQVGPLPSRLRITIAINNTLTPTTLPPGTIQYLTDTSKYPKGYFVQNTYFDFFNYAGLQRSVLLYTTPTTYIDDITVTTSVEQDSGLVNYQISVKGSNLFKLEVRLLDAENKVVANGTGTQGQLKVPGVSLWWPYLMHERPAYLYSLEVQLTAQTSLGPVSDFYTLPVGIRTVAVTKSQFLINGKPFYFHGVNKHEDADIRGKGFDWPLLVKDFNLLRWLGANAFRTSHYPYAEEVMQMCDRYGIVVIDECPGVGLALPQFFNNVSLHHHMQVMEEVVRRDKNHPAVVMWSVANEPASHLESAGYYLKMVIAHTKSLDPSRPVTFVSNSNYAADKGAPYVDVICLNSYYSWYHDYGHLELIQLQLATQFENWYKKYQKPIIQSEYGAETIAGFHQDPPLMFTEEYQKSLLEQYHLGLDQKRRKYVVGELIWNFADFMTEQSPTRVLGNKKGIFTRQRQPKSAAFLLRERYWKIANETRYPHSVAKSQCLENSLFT

For `CCc1c2c(nc3ccc(O)cc13)-c1cc3c(c(=O)n1C2)COC(=O)[C@]3(O)CC` [SN-38], the “toxicity relative to CPT-11” value [1] is given as “at least one hundred-fold more toxic”.
In the case of `COc1cccc2c1C(=O)c1c(O)c3c(c(O)c1C2=O)C[C@@](O)(C(=O)CO)C[C@@H]3O[C@H]1C[C@H](N)[C@@H](O[C@@H]2O[C@H](C(=O)O)[C@@H](O)[C@H](O)[C@H]2O)[C@H](C)O1` [epirubicin glucuronide], the “reduction in lymphoma by radioimmunodetection” value [2] is reported as “significant reduction in the lymphoma”.
For `COc1cccc2c1C(=O)c1c(O)c3c(c(O)c1C2=O)C[C@@](O)(C(=O)CO)C[C@@H]3O[C@H]1C[C@H](N)[C@@H](O)[C@H](C)O1` [epirubicin], the “substrate for human beta-D-glucuronidase” value [3] is listed as “has been shown to be a substrate”.
